This passage reports solubility results from patent US20260041639A1, “GEPOTIDACIN FORMULATION” (GLAXOSMITHKLINE INTELLECTUAL PROPERTY DEVELOPMENT LIMITED, priority 2022, published 2026).

Values after ≈ are worked out from the molar mass of the structure shown.

The nature of this data set: Solubility of API in water. Particulars: 25 °C. The data set is classed as physicochemical. The text has this: The skilled reader will readily appreciate that the granules of the disclosure rapidly disperse. It is therefore apparent that the physical properties of the API and in particular its solubility will have no impact on the dispersion time.

As usually defined, the solubility is the concentration that dissolves in the medium under given conditions. For the molecule `C[C@H]1CO[C@@H]2Cn3cc(C(=O)NCc4ccc(F)cc4F)c(=O)c(O)c3C(=O)N12` [cabotegravir, (3R,6S)—N-[(2,4-difluorophenyl)methyl]-10-hydroxy-6-methyl-8,11-dioxo-4-oxa-1,7-diazatricyclo[7.4.0.03,7]trideca-9,12-diene-12-carboxamide], the concentration in solution (solubility) came to 2.9 mg/mL (≈ 7.15 mM).
Under `O=c1ccc2ncc(=O)n3c2n1C[C@H]3CN1CCC(NCc2cc3c(cn2)OCCC3)CC1` [gepotidacin, (2R)-2-({4-[(3,4-Dihydro-2H-pyrano[2,3-c]pyridin-6-ylmethyl)amino]-1-piperidinyl}methyl)-1,2-dihydro-3H,8H-2a,5,8a-triazaacenaphthylene-3,8-dione] stands 175 mg/mL (≈ 390 mM).
